The test system of assay [1] is Bell's Palsy. Briefly: Example 2: treatment of a person suffering from Bell's Palsy. To be noted: 60 mg/day prednisone therapy alone for a month. It counts as in vivo, human. Here is the method:
The patient, a person is diagnosed by their doctor as suffering from Bell's Palsy. […] The patient is then administered IVIG at 2 g/kg and 60 mg prednisone. Within three weeks, the Bell's Palsy is resolved by about 80%. The patient is then administered a second dose of IVIG at 2 g/kg and 60 mg. prednisone. Within two weeks, the patient is resolved by about 95%.

In assay [2] the test system is Bell's Palsy. Briefly: Example 1: treatment of person suffering from Bell's Palsy. It counts as in vivo, human. To be noted: 60 mg/day prednisone therapy alone, two weeks. How it is done:
The patient, a person was diagnosed by their doctor after claiming they are suffering from unexplained facial weakness. The patient's doctor diagnosed the patient as suffering from Bell's Palsy. […] Two weeks after administration, the patient is co-administered a single dose of IVIG at 2 g/kg and 60 mg prednisone and Bell's Palsy related symptoms the patient suffered from are reduced by 70% within two weeks from the co-administration.

The subject of assay [3] is Bell's Palsy. To be noted: prednisolone 60 mg per day for 5 days then reduced by 10 mg per day, and 50 mg per day for 10 days; cited from earlier work.

Here are results for two compounds from patent publication US11083789B2, “IVIG treatments for Bell's palsy” (InnoMed Technologies, Inc., priority 2019, dated 2021).

With `C[C@]12C=CC(=O)C=C1CC[C@@H]1[C@@H]2C(=O)C[C@@]2(C)[C@H]1CC[C@]2(O)C(=O)CO` [prednisone], the “resolution of Bell's Palsy” value in assay [1] is on record as “did not resolve”. Also, in assay [2], the “reduction in the symptoms of Bell's Palsy” value was “no reduction”.
`C[C@]12C=CC(=O)C=C1CC[C@@H]1[C@@H]2[C@@H](O)C[C@@]2(C)[C@H]1CC[C@]2(O)C(=O)CO` [prednisolone]: in assay [3], the “outcome in patients with Bell's palsy” value is listed as “improves outcome” and the “time to complete recovery” value is listed as “shortens the time to complete recovery”.
